Laboratory results taken from US12648904B2, “Porous nanocomposite medical implant device” (Lynthera Corporation, priority 2020, dated 2026).

Test: Fatty acid loading into contact lenses, by weighing the dry lens before and after soaking
Type: physicochemical
Conditions: for Fatty acid loading / Fatty acid by weight of the dried lens: ACUVUE TruEye lens; for Fatty acid loading: soaking concentration 20 mg/mL fatty acid in ethanol; for Fatty acid by weight of the dried lens: 7.5 mg/mL fatty acid in ethanol, 24 hours at 23° C.
Description: Two commercial silicone hydrogel contact lenses were tested: ACUVUE TruEye® (46% Water+54% Narafilcon A) and ACUVUE Oasys® (38% Water+62% Senofilcon A). TruEye® is a daily disposable contact lens while Oasys® is an approved contact lens for extended wear. The lenses were rinsed with deionized water and then air-dried before being soaked in 4 mL of 19 mg/mL, 27 mg/mL or 40 mg/mL of oleic acid in ethanol. The soaking duration was 24 hours at room temperature. Following the loading step, the contact lenses were taken out and excess fatty acid-ethanol solution was blotted out from the lens surface. Lenses were washed in deionized water for 1 hour and subsequently air-dried overnight.
The loading amount of OA was determined by weighing the dry lens before and after the fatty acid loading period as shown in FIG. 4. Oleic acid loading has a linear dependency on the concentration of the loading solutions. Furthermore, Oasys® has higher affinity for oleic acid than TruEye® at concentrations between […] and 27 mg/mL. For higher concentrations, the affinity for oleic acid is equivalent for both contact lenses. Therefore, the loading of Oleic acid into lens can be adjusted by this correlation.
1-day ACUVUE Moist® (58% Water+42% Etafi Icon A) are conventional hydrogel commercial lenses that are mostly composed of poly-2-hydroxyethyl methacrylate (pHEMA). Lenses were rinsed with PBS and then air-dried before use. Dry lenses were soaked in 4 mL of 100 mg/mL of oleic acid in a mixture of ethanol and deionized water (75/25 ethanol/water). […] Following the loading step, the contact lenses were taken out and excess fatty acid-ethanol solution was blotted out from the lens surface. Lenses were washed in PBS for 1 hour and then were air-dried overnight. The loading amount of OA was determined by weighing the dry lens before and after the fatty acid loading period.
ACUVUE TruEye® (diopter −3.5) contact lenses were rinsed with deionized. water and then air-dried overnight before use. One batch of contact lenses were soaked in 4 mL of 7.5 mg,/mL of myristic acid in ethanol. Another batch of contact lens were soaked in 4 mL of 7.5 mg/mL of stearic acid in ethanol. A third batch of lenses was used as a control (no fatty acid loading). The soaking duration was 24 hours at 23° C. Following the loading step, the contact lenses were taken out and excess fatty acid-ethanol solution was blotted out from the lens surface. Lenses were washed in deionized water for 1 hour and subsequently air-dried overnight. All contact lenses were optically transparent in the hydrated state. The wt % of fatty add retain by the contact lens was determined by recording the increase in the weight of the dried lens after the soaking and drying procedure. For both stearic and myristic acid, approximately 1.5% ±0.5% by weight of the dried lens was composed of the fatty acid.

| SMILES | Fatty acid loading | Fatty acid by weight of the dried lens | Maximum oleic acid loading (1-day ACUVUE Moist lens, 100 to 500 mg/mL oleic acid in 75/25 ethanol/water) |
| --- | --- | --- | --- |
| CCCCC/C=C\C/C=C\CCCCCCCC(=O)O [linoleic acid] | 6.2 wt % |  |  |
| CCCCCCCCCCCCCC(=O)O [myristic acid, Myristic Acid (Tetradecanoic Acid)] |  | approximately 1.5% |  |
| CCCCCCCC/C=C\CCCCCCCC(=O)O [oleic acid] | 6.1 wt % |  | 2.9 wt. % |
| CCCCCCCCCCCCCCCCCC(=O)O [stearic acid, Stearic Acid (Octadecanoic Acid)] |  | approximately 1.5% |  |
| CC/C=C\C/C=C\C/C=C\CCCCCCCC(=O)O [α-linolenic acid] | 6.0 wt % |  |  |
